“Also recorded” adds a separate entry of the source. One block for each compound: values may come before it.
Legend:
[1] = poly(ethyloxaline)/PMAA matrix disks, 0.9% saline; cited from earlier work
[2] = Drug loss during the cross-linking process; type: physicochemical; details: previous formulations (with glycerol, lactose, sucrose)
[3] = Dissolution of formulations A-K: acid stage (0.1 N HCl two hours) then buffer stage; type: physicochemical; details: for T80: buffer stage pH 7.2 phosphate buffer after 0.1 N HCl two hours; for % released in acid stage: after two hours
Procedure: (§1) A dissolution study was performed on each of the different tablets to determine their dissolution profiles. Dissolution USP apparatus II (Paddle) was initially used. […] Rotation speed was 50 RPM and the temperature was 37.0±0.5° C. The dissolution media used was 900 ml of 0.1 N hydrochloric acid in each vessel. After 2 hours the dissolution media was changed to 900 ml of standard 50 mM pH 7.2 potassium phosphate buffer. A 1 ml sample was withdrawn at each time. The samples were analyzed by HPLC.
HPLC analysis: an Agilent 1100 series HPLC with auto-sampler and dual wavelength detector was used. The mobile phase was acetonitrile to water with 0.5% formic acid (60:50 v/v).
Methods: different formulations were developed. […] The ingredients of all the formulations were mixed with deionized water at room temperature. The basket method described in chapter two was used to fabricate the tablets. 2 or 1.5 ml of the gel was dispensed into the basket as indicated.
Release profiles of the tablets were investigated in different buffer capacities and pH values. The tablets were pretreated in the acid stage for two hours before transferring them to the buffer stage.

[4] = Dissolution of compressed caffeine tablets (Carver press, Minipress IIBD); type: physicochemical; details: compressed tablet with alginate film coating
Procedure: Coated Tablet Results: different weight gains were tested to try to achieve the delayed release profile.
Because it was somewhat more difficult to produce tablets with similar hardness on the Minipress using the formulation used on the Carver press, lactose was added to increase the hardness of the tablets.

[5] = Dissolution of calcium alginate tablets in different dissolution media (deionized water, EDTA, EDTA+CaCl2); type: physicochemical
Procedure: In order to investigate the role of solutes and pH of the media on the erosion process, calcium alginate tablets made with same formulation were treated in different dissolution media.
The dissolution of the drug from the Ca Alginate dosage form was dependent on two things. First the pH of the media had to be neutral or high. Second the media had to have the ability to complex with the Calcium in solution. […] The drug release at pH 7.2 in media with either EDTA or phosphate buffer was complete in 6 hours. Drug release in 0.1 N HCl was less than 5%.

[6] = Dissolution study of calcium alginate tablets, USP apparatus I (basket), 0.1 N HCl 2 hours then pH 7.2 phosphate buffer; type: physicochemical; details: after two hours
Procedure: Analysis: an Agilent 1100 series HPLC with autosampler and dual wavelength detector was used. The mobile phase was acetonitrile to water with 0.5% formic acid (60:50 v/v). The flow rate was 1.2 mL/min and the sample injection volume was 50 μL and the wavelength of detection was 214 nm. The column used was a 150 by 4.6 mm Eclipse Plus C18 column (Agilent).
as §1

[7] = cited from earlier work

Compound: insulin: regular zinc insulin in a poly(ethyloxaline)/PMAA matrix (Kwon et al.)
insulin released during the 3 days equilibrium period in saline [1]: less than 4 % of the initial insulin load

Compound: O=C(O)c1ccccc1 [Benzoic acid, benzoic acid]
benzoic acid lost during the cross-linking process [2]: more than 30%
drug load released during residence time in the acid stage ([3]; benzoic acid, previous formulations (with glycerol, lactose, sucrose)): more than 30%
T80 ([3]; formulation B): 6.76 h
released in the acid stage after two hours ([3]; formulation C): about 18%
T80 ([3]; formulation C): 6.4 h
% released in acid stage ([3]; formulation K): 7%
erosion of tablets at pH 3 and pH 4 ([3]; formulation K, buffer stage): no erosion was detected
erosion of tablets at pH 5 ([3]; formulation K, buffer stage): started to erode but at a slower rate compared to pH 7.2
effect of higher buffer capacity on release rate ([3]; formulation K, 100 mM phosphate buffer, pH 7.2): minimum effect on the release rate
effect of lower buffer capacity on drug release ([3]; formulation K, 25 and 10 mM phosphate buffer, pH 7.2): a slower drug release

Compound: Cn1c(=O)c2c(ncn2C)n(C)c1=O [Caffeine, caffeine]
% released in acid stage ([3]; formulation K): 18%
caffeine release by 12 hours [4]: 80%
time for which caffeine is retained [4]: up to 8 hours

T80 ([3]; formulation B): 4.8 h
T80 ([3]; formulation C): 6.71 h
% released in acid stage ([3]; formulation K): <1%
time to complete drug release ([5]; pH 7.2 media with either EDTA or phosphate buffer): 6 h
drug release in 10 mM EDTA dissolution medium ([5]; tablets with 1 g stearic acid, 1 molar CaCl2 3 minutes, 10 mM EDTA): Complete drug release
erosion or release in EDTA solution treated with calcium chloride ([5]; tablets with 1 g stearic acid, 1 molar CaCl2 3 minutes, 10 mM EDTA+30 mM CaCl2): No erosion or release
drug released in 0.1 N HCl media [6]: less than 5%
Compound: CC(C)Cc1ccc(C(C)C(=O)O)cc1 (stereo not drawn) [Ibuprofen, ibuprofen]
release of the drug in pH 7.2 deionized water ([5]; calcium alginate tablets, pH 7.2 deionized water): no significant release; also recorded: no drug release

% released in acid stage ([3]; formulation K): 17%
Compound: COc1ccccc1OCC(O)CO (stereo not drawn) [Guaifenesin, guaifenesin]
solubility [7]: highly soluble

— patent US11351121B2, “Calcium alginate dosage formulations, and methods of making and using thereof” (Temple University—Of The Commonwealth System of Higher …, priority 2015, dated 2022)
